Results from patent publication US20070281992A1, “COMBINATION OF GYRASE B INHIBITORS AND PROTEIN SYNTHESIS INHIBITORS AND USES THEREOF” (priority 2006, published 2007).
Where two headings read alike, the source gives them in different places.

Tests used:
[1] = tested on: Staphylococcus aureus 0100 (ATCC 29213); experiment: MIC assay, quality control strain S. aureus ATCC 29213; assay type: cell-based; conditions: ATCC29213, S. aureus ATCC 29213, repeat runs 22FEB06-09MAR06, combinations at 2.5:1, read-out: Minimal Inhibitory Concentration, quality control
Method: (§1) Antibiotics: novobiocin, tetracycline, minocycline, oxacillin, and vancomycin were all purchased from Sigma-Aldrich. Linezolid was obtained from Pfizer, Inc. Novobiocin/tetracycline and novobiocin/minocycline were tested in a 2.5:1 ratio to mimic the serum levels. (Vavra, J. J., 1967, Development of resistance to novobiocin, tetracycline, and novobiocin-tetracycline combinations in Staphylococcus aureus populations, J. Bacteriol 93(3):801). Compounds were tested across a concentration range consisting of 11 two-fold serial dilutions of test agent.
(§2) Stock solutions were prepared in sterile deionized water; novobiocin stock concentration was 1600 μg/mL and all other drugs stock solutions were prepared at 640 μg/mL. The stock solutions were allowed to sit at room temperature for one hour to auto-sterilize prior to use in the test. All compounds were in solution in water. The control agent was vancomycin hydrochloride, Sigma Chemical Lot # 015K0825.
(§3) The test organisms for the assay were 52 MSSA, 52 MRSA, 8 VISA, 7 VISE, and 3 LRSA isolates. Quality control strains included Staphylococcus aureus 0100 (ATCC 29213) and Enterococcus faecalis (ATCC 29212).
(§4) The MIC assay was performed according to published NCCLS guidelines. (National Committee for Clinical Laboratory Standards, Methods for Dilution Antimicrobial Susceptibility Tests for Bacteria that Grow Aerobically; Approved Standard-Sixth Edition, NCCLS Document M7-A6 [ISBN 1-56238-486-4], NCCLS, 940 West Valley Road, Suite 1400, Wayne, Pa. 19087-1898 USA, 2003). The test medium was Mueller Hinton II Broth for all organisms.

[2] = tested on: Methicillin-Susceptible Staphylococcus aureus Isolates; experiment: MIC assay (NCCLS broth dilution), MSSA clinical isolates; assay type: cell-based; conditions: for MIC / MIC50 / MIC90: Staphylococcus aureus
Method: as §1, §2, §3, §4

[3] = 52 MSSA isolates, Mueller Hinton II Broth, combinations at 2.5:1, given as NB/partner
[4] = MSSA isolate 133, 03MAR06, read-out: Minimal Inhibitory Concentration
[5] = MSSA isolate 134, 03MAR06, read-out: Minimal Inhibitory Concentration
[6] = MSSA isolate 135, 03MAR06, read-out: Minimal Inhibitory Concentration
[7] = MSSA isolate 753, 22FEB06, read-out: Minimal Inhibitory Concentration
[8] = MSSA isolate 754, 22FEB06, read-out: Minimal Inhibitory Concentration
[9] = MSSA isolate 754, 24FEB06, read-out: Minimal Inhibitory Concentration
[10] = MSSA isolate 755, 22FEB06, read-out: Minimal Inhibitory Concentration
[11] = MSSA isolate 756, 03MAR06, read-out: Minimal Inhibitory Concentration
[12] = MSSA isolate 779, 22FEB06, read-out: Minimal Inhibitory Concentration
[13] = MSSA isolate 780, 03MAR06, read-out: Minimal Inhibitory Concentration
[14] = MSSA isolate 781, 03MAR06, read-out: Minimal Inhibitory Concentration
[15] = MSSA isolate 782, 22FEB06, read-out: Minimal Inhibitory Concentration
[16] = MSSA isolate 783, 22FEB06, read-out: Minimal Inhibitory Concentration
[17] = MSSA isolate 784, 22FEB06, read-out: Minimal Inhibitory Concentration
[18] = MSSA isolate 785, 22FEB06, read-out: Minimal Inhibitory Concentration
[19] = MSSA isolate 786, 22FEB06, read-out: Minimal Inhibitory Concentration
[20] = MSSA isolate 787, 22FEB06, read-out: Minimal Inhibitory Concentration
[21] = MSSA isolate 788, 22FEB06, read-out: Minimal Inhibitory Concentration
[22] = MSSA isolate 789, 24FEB06, read-out: Minimal Inhibitory Concentration
[23] = MSSA isolate 790, 24FEB06, read-out: Minimal Inhibitory Concentration
[24] = MSSA isolate 791, 24FEB06, read-out: Minimal Inhibitory Concentration
[25] = MSSA isolate 792, 03MAR06, read-out: Minimal Inhibitory Concentration
[26] = MSSA isolate 793, 24FEB06, read-out: Minimal Inhibitory Concentration
[27] = MSSA isolate 794, 24FEB06, read-out: Minimal Inhibitory Concentration
[28] = MSSA isolate 994, 22FEB06, read-out: Minimal Inhibitory Concentration
[29] = MSSA isolate 995, 03MAR06, read-out: Minimal Inhibitory Concentration
[30] = MSSA isolate 996, 22FEB06, read-out: Minimal Inhibitory Concentration
[31] = MSSA isolate 997, 22FEB06, read-out: Minimal Inhibitory Concentration
[32] = MSSA isolate 998, 03MAR06, read-out: Minimal Inhibitory Concentration
[33] = MSSA isolate 999, 22FEB06, read-out: Minimal Inhibitory Concentration
[34] = MSSA isolate 1000, 24FEB06, read-out: Minimal Inhibitory Concentration
[35] = MSSA isolate 1001, 24FEB06, read-out: Minimal Inhibitory Concentration
[36] = MSSA isolate 1002, 24FEB06, read-out: Minimal Inhibitory Concentration
[37] = MSSA isolate 1003, 03MAR06, read-out: Minimal Inhibitory Concentration
[38] = MSSA isolate 1005, 24FEB06, read-out: Minimal Inhibitory Concentration
[39] = MSSA isolate 1006, 24FEB06, read-out: Minimal Inhibitory Concentration
[40] = MSSA isolate 1007, 24FEB06, read-out: Minimal Inhibitory Concentration
[41] = MSSA isolate 1008, 24FEB06, read-out: Minimal Inhibitory Concentration
[42] = MSSA isolate 1009, 24FEB06, read-out: Minimal Inhibitory Concentration
[43] = MSSA isolate 1131, 24FEB06, read-out: Minimal Inhibitory Concentration
[44] = MSSA isolate 1132, 03MAR06, read-out: Minimal Inhibitory Concentration
[45] = MSSA isolate 1133, 24FEB06, read-out: Minimal Inhibitory Concentration
[46] = MSSA isolate 1134, 24FEB06, read-out: Minimal Inhibitory Concentration
[47] = MSSA isolate 1654, 03MAR06, read-out: Minimal Inhibitory Concentration
[48] = MSSA isolate 1656, 03MAR06, read-out: Minimal Inhibitory Concentration
[49] = MSSA isolate 1662, 03MAR06, read-out: Minimal Inhibitory Concentration
[50] = MSSA isolate 1663, 03MAR06, read-out: Minimal Inhibitory Concentration
[51] = MSSA isolate 1666, 03MAR06, read-out: Minimal Inhibitory Concentration
[52] = MSSA isolate 1667, 03MAR06, read-out: Minimal Inhibitory Concentration
[53] = MSSA isolate 1668, 03MAR06, read-out: Minimal Inhibitory Concentration
[54] = MSSA isolate 1671, 03MAR06, read-out: Minimal Inhibitory Concentration
[55] = MSSA isolate 1728, 03MAR06, read-out: Minimal Inhibitory Concentration
[56] = MSSA isolate 1728, retest 09MAR06, read-out: Minimal Inhibitory Concentration
[57] = 52 MSSA isolates, combinations at 2.5:1, given as NB/partner

CN(C)c1ccc(O)c2c1C[C@H]1C[C@H]3[C@H](N(C)C)C(O)=C(C(N)=O)C(=O)[C@@]3(O)C(O)=C1C2=O [MI, minocycline]
.06 to .12 µg/mL: MIC Range [2, 3]
0.12 µg/mL: MIC [1] | MIC [2, 7] | MIC [2, 8] | MIC [2, 9] | MIC [2, 10] | MIC [2, 12] | MIC [2, 13] | MIC [2, 15] | MIC [2, 16] | MIC [2, 17] | MIC [2, 18] | MIC [2, 19] | MIC [2, 20] | MIC [2, 21] | MIC [2, 22] | MIC [2, 23] | MIC [2, 24] | MIC [2, 26] | MIC [2, 27] | MIC [2, 28] | MIC [2, 29] | MIC [2, 31] | MIC [2, 33] | MIC [2, 34] | MIC [2, 35] | MIC [2, 36] | MIC [2, 39] | MIC [2, 40] | MIC [2, 42] | MIC [2, 45] | MIC [2, 46] | MIC [2, 47] | MIC [2, 50] | MIC [2, 52] | MIC50 [2, 57] | MIC90 [2, 57]
0.06 µg/mL: MIC [2, 4] | MIC [2, 5] | MIC [2, 6] | MIC [2, 11] | MIC [2, 14] | MIC [2, 25] | MIC [2, 30] | MIC [2, 32] | MIC [2, 37] | MIC [2, 38] | MIC [2, 41] | MIC [2, 43] | MIC [2, 44] | MIC [2, 48] | MIC [2, 49] | MIC [2, 51] | MIC [2, 53] | MIC [2, 54] | MIC [2, 55] | MIC [2, 56]

CO[C@@H]1[C@@H](OC(N)=O)[C@@H](O)[C@H](Oc2ccc3c(O)c(NC(=O)c4ccc(O)c(CC=C(C)C)c4)c(=O)oc3c2C)OC1(C)C [NB, novobiocin]
.08 to 10 µg/mL: MIC Range [2, 3]
0.625 µg/mL: MIC [2, 41]
10 µg/mL: MIC [2, 55] | MIC [2, 56] | MIC ([2]; MSSA isolate #1728 (novobiocin-resistant), read-out: MIC)
0.08 to 0.62 µg/mL: MIC Range ([2]; the other 51 MSSA isolates (without #1728))
0.15 µg/mL: MIC [2, 4] | MIC [2, 11] | MIC [2, 14] | MIC [2, 15] | MIC [2, 18] | MIC [2, 19] | MIC [2, 20] | MIC [2, 21] | MIC [2, 24] | MIC [2, 25] | MIC [2, 28] | MIC [2, 33] | MIC [2, 34] | MIC [2, 36] | MIC [2, 42] | MIC [2, 43] | MIC [2, 44] | MIC [2, 45] | MIC [2, 48] | MIC [2, 49] | MIC [2, 50] | MIC [2, 52] | MIC [2, 53] | MIC [2, 54] | MIC50 [2, 57]
0.312 µg/mL: MIC90 [2, 57]
0.08 µg/mL: MIC [2, 5] | MIC [2, 37] | MIC [2, 38]
0.31 µg/mL: MIC [2, 6] | MIC [2, 7] | MIC [2, 8] | MIC [2, 9] | MIC [2, 10] | MIC [2, 12] | MIC [2, 13] | MIC [2, 16] | MIC [2, 17] | MIC [2, 22] | MIC [2, 23] | MIC [2, 26] | MIC [2, 27] | MIC [2, 29] | MIC [2, 30] | MIC [2, 31] | MIC [2, 32] | MIC [2, 35] | MIC [2, 39] | MIC [2, 40] | MIC [2, 46] | MIC [2, 47] | MIC [2, 51]

CN(C)[C@@H]1C(O)=C(C(N)=O)C(=O)[C@@]2(O)C(O)=C3C(=O)c4c(O)cccc4[C@@](C)(O)[C@H]3C[C@@H]12 [TE, tetracycline]
1 µg/mL: MIC [2, 15] | MIC [2, 50] | MIC [2, 52]
16 µg/mL: MIC [2, 17]
> 16 µg/mL: MIC [2, 33]
0.5 µg/mL: MIC [1] | MIC [2, 4] | MIC [2, 5] | MIC [2, 6] | MIC [2, 7] | MIC [2, 8] | MIC [2, 9] | MIC [2, 10] | MIC [2, 11] | MIC [2, 12] | MIC [2, 13] | MIC [2, 14] | MIC [2, 16] | MIC [2, 18] | MIC [2, 19] | MIC [2, 20] | MIC [2, 21] | MIC [2, 22] | MIC [2, 23] | MIC [2, 24] | MIC [2, 25] | MIC [2, 26] | MIC [2, 27] | MIC [2, 28] | MIC [2, 29] | MIC [2, 30] | MIC [2, 31] | MIC [2, 32] | MIC [2, 34] | MIC [2, 35] | MIC [2, 36] | MIC [2, 37] | MIC [2, 39] | MIC [2, 40] | MIC [2, 41] | MIC [2, 42] | MIC [2, 43] | MIC [2, 44] | MIC [2, 45] | MIC [2, 46] | MIC [2, 47] | MIC [2, 48] | MIC [2, 49] | MIC [2, 51] | MIC [2, 53] | MIC [2, 54] | MIC50 [2, 57] | MIC90 [2, 57]
0.25 µg/mL: MIC [2, 38] | MIC [2, 55] | MIC [2, 56]
